Assays:
Type in all cases: in vivo
[1] = system: barnyardgrass (Echinochloa crus-galli); experiment: Test A pre-/postemergence greenhouse herbicide test, visual injury rating 0-100
How it was run: (§1)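 Greenhouse plants received compound either as directed soil spray at planting or as postemergence spray at the one- to two-leaf stage (2–10 cm). Evaluated after about 10 days by visual comparison with untreated controls.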

corn (Zea mays) = experiment: as above
How it was run: as §1

[2] = system: giant foxtail (Setaria faberii); experiment: as above
How it was run: as §1

[3] = system: large (Lg) crabgrass (Digitaria sanguinalis); experiment: as above
How it was run: as §1

[4] = system: morningglory (Ipomoea spp.); experiment: as above
How it was run: as §1

[5] = system: pigweed (Amaranthus retroflexus); experiment: as above
How it was run: as §1

[6] = system: velvetleaf (Abutilon theophrasti); experiment: as above
How it was run: as §1

[7] = system: wheat (Triticum aestivum); experiment: as above
How it was run: as §1

[8] = system: Italian ryegrass (Lolium multiflorum); experiment: Test C pre-/postemergence greenhouse test, plant response rating 0-100; conditions: Postemergence; for Plant response rating, Ryegrass, Italian: scale 0 to 100
How it was run: (§2)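 Plants were treated either at seeding (soil of loam and sand) or as 2–18 cm seedlings in a sphagnum peat mix, using test chemicals in a surfactant-containing non-phytotoxic solvent. Visual assessment relative to controls followed 13–15 days later.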

[9] = system: giant foxtail (Setaria faberii); experiment: as above; conditions: Postemergence; for Plant response rating, Foxtail, Giant: scale 0 to 100
How it was run: as §2

soybean (Glycine max) = experiment: as above; conditions: Postemergence; for Plant response rating, Soybean: scale 0 to 100
How it was run: as §2

[10] = system: chickweed (common chickweed, Stellaria media); experiment: Test C postemergence greenhouse test, plant response rating 0-100; conditions: for Plant response rating, Chickweed: scale 0 to 100
How it was run: (§3)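 Each weed species was grown in potting medium and sprayed after emergence, when 2–18 cm tall. Ratings, made by eye relative to control pots, were recorded 13–15 days later using a scale where 0 is no effect.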

kochia (Kochia scoparia) = experiment: as above; conditions: for Plant response rating, Kochia: scale 0 to 100
How it was run: as §3

wild oat (Avena fatua) = experiment: as above; conditions: for Plant response rating, Oat, Wild: scale 0 to 100
How it was run: as §3

With `Fc1cccc(NN=C(c2ccccc2)c2c[nH]nc2-c2cc(Cl)cc(Cl)c2)c1` [Compound 58] the “Plant response rating (0 to 100 scale), Barnyardgrass” value ([1]; Postemergence, 1000 g ai/ha) was 0, the “Plant response rating (0 to 100 scale), Barnyardgrass” value ([1]; Preemergence, 1000 g ai/ha) was 0 and the “Plant response rating (0 to 100 scale), Corn” value (corn (Zea mays); Postemergence, 1000 g ai/ha) was 0. The “Plant response rating (0 to 100 scale), Corn” value (corn (Zea mays); Preemergence, 1000 g ai/ha) was 0, the “Plant response rating (0 to 100 scale), Foxtail, Giant” value ([2]; Postemergence, 1000 g ai/ha) was 0 and the “Plant response rating (0 to 100 scale), Foxtail, Giant” value ([2]; Preemergence, 1000 g ai/ha) was 0. For the same compound, the “Plant response rating (0 to 100 scale), Crabgrass, Large” value ([3]; Postemergence, 1000 g ai/ha) was 0, the “Plant response rating (0 to 100 scale), Crabgrass, Large” value ([3]; Preemergence, 1000 g ai/ha) was 0 and the “Plant response rating (0 to 100 scale), Morningglory” value ([4]; Postemergence, 1000 g ai/ha) was 0. For the same compound, the “Plant response rating (0 to 100 scale), Morningglory” value ([4]; Preemergence, 1000 g ai/ha) was 0, the “Plant response rating (0 to 100 scale), Pigweed” value ([5]; Postemergence, 1000 g ai/ha) was 90 and the “Plant response rating (0 to 100 scale), Pigweed” value ([5]; Preemergence, 1000 g ai/ha) was 100. The “Plant response rating (0 to 100 scale), Velvetleaf” value ([6]; Postemergence, 1000 g ai/ha) was 90, the “Plant response rating (0 to 100 scale), Velvetleaf” value ([6]; Preemergence, 1000 g ai/ha) was 90 and the “Plant response rating (0 to 100 scale), Wheat” value ([7]; Postemergence, 1000 g ai/ha) was 0. For the same compound, the “Plant response rating (0 to 100 scale), Wheat” value ([7]; Preemergence, 1000 g ai/ha) was 0, the “Plant response rating (0 to 100), Ryegrass, Italian” value ([8]; 62 g ai/ha) was 0 and the “Plant response rating (0 to 100), Ryegrass, Italian” value ([8]; 125 g ai/ha) was 0. For the same compound, the “Plant response rating, Ryegrass, Italian” value ([8]; 250 g ai/ha) was 0, the “Plant response rating, Ryegrass, Italian” value ([8]; 500 g ai/ha) was 0 and the “Plant response rating (0 to 100), Foxtail, Giant” value ([9]; 62 g ai/ha) was 0. For the same compound, the “Plant response rating (0 to 100), Foxtail, Giant” value ([9]; 125 g ai/ha) was 0, the “Plant response rating, Foxtail, Giant” value ([9]; 250 g ai/ha) was 0 and the “Plant response rating, Foxtail, Giant” value ([9]; 500 g ai/ha) was 5. For the same compound, the “Plant response rating (0 to 100), Soybean” value (soybean (Glycine max); 62 g ai/ha) was 0, the “Plant response rating (0 to 100), Soybean” value (soybean (Glycine max); 125 g ai/ha) was 5 and the “Plant response rating, Soybean” value (soybean (Glycine max); 250 g ai/ha) was 10. The “Plant response rating, Soybean” value (soybean (Glycine max); 500 g ai/ha) was 10, the “Plant response rating (0 to 100), Chickweed” value ([10]; 62 g ai/ha) was 70 and the “Plant response rating (0 to 100), Chickweed” value ([10]; 125 g ai/ha) was 100. For the same compound, the “Plant response rating, Chickweed” value ([10]; 250 g ai/ha) was 100, the “Plant response rating, Chickweed” value ([10]; 500 g ai/ha) was 100 and the “Plant response rating (0 to 100), Kochia” value (kochia (Kochia scoparia); 62 g ai/ha) was 15. The “Plant response rating (0 to 100), Kochia” value (kochia (Kochia scoparia); 125 g ai/ha) was 50, the “Plant response rating, Kochia” value (kochia (Kochia scoparia); 250 g ai/ha) was 98 and the “Plant response rating, Kochia” value (kochia (Kochia scoparia); 500 g ai/ha) was 98. The “Plant response rating (0 to 100), Oat, Wild” value (wild oat (Avena fatua); 62 g ai/ha) was 0, the “Plant response rating (0 to 100), Oat, Wild” value (wild oat (Avena fatua); 125 g ai/ha) was 0 and the “Plant response rating, Oat, Wild” value (wild oat (Avena fatua); 250 g ai/ha) was 0. The “Plant response rating, Oat, Wild” value (wild oat (Avena fatua); 500 g ai/ha) was 0.

`C=CCn1cc(C(=O)c2ccccc2)c(-c2cc(Cl)cc(Cl)c2)n1` [Compound 60] was tested, and the “Plant response rating (0 to 100 scale), Barnyardgrass” value ([1]; Postemergence, 125 g ai/ha) was 0, the “Plant response rating (0 to 100 scale), Barnyardgrass” value ([1]; Postemergence, 500 g ai/ha) was 0 and the “Barnyardgrass plant response rating (0 = no effect, 100 = complete control)” value ([1]; Preemergence, 125 g ai/ha) was 0. The “Plant response rating (0 to 100 scale), Barnyardgrass” value ([1]; Preemergence, 500 g ai/ha) was 0, the “Plant response rating (0 to 100 scale), Corn” value (corn (Zea mays); Postemergence, 125 g ai/ha) was 0 and the “Plant response rating (0 to 100 scale), Corn” value (corn (Zea mays); Postemergence, 500 g ai/ha) was 0. For the same compound, the “Corn plant response rating (0 = no effect, 100 = complete control)” value (corn (Zea mays); Preemergence, 125 g ai/ha) was 0, the “Plant response rating (0 to 100 scale), Corn” value (corn (Zea mays); Preemergence, 500 g ai/ha) was 0 and the “Plant response rating (0 to 100 scale), Foxtail, Giant” value ([2]; Postemergence, 125 g ai/ha) was 0. For the same compound, the “Plant response rating (0 to 100 scale), Foxtail, Giant” value ([2]; Postemergence, 500 g ai/ha) was 0, the “Foxtail, Giant plant response rating (0 = no effect, 100 = complete control)” value ([2]; Preemergence, 125 g ai/ha) was 0 and the “Plant response rating (0 to 100 scale), Foxtail, Giant” value ([2]; Preemergence, 500 g ai/ha) was 0. The “Plant response rating (0 to 100 scale), Crabgrass, Large” value ([3]; Postemergence, 125 g ai/ha) was 0, the “Plant response rating (0 to 100 scale), Crabgrass, Large” value ([3]; Postemergence, 500 g ai/ha) was 0 and the “Crabgrass, Large plant response rating (0 = no effect, 100 = complete control)” value ([3]; Preemergence, 125 g ai/ha) was 0. The “Plant response rating (0 to 100 scale), Crabgrass, Large” value ([3]; Preemergence, 500 g ai/ha) was 0, the “Plant response rating (0 to 100 scale), Morningglory” value ([4]; Postemergence, 125 g ai/ha) was 0 and the “Plant response rating (0 to 100 scale), Morningglory” value ([4]; Postemergence, 500 g ai/ha) was 0. For the same compound, the “Morningglory plant response rating (0 = no effect, 100 = complete control)” value ([4]; Preemergence, 125 g ai/ha) was 0, the “Plant response rating (0 to 100 scale), Morningglory” value ([4]; Preemergence, 500 g ai/ha) was 0 and the “Plant response rating (0 to 100 scale), Pigweed” value ([5]; Postemergence, 125 g ai/ha) was 80. The “Plant response rating (0 to 100 scale), Pigweed” value ([5]; Postemergence, 500 g ai/ha) was 90, the “Pigweed plant response rating (0 = no effect, 100 = complete control)” value ([5]; Preemergence, 125 g ai/ha) was 60 and the “Plant response rating (0 to 100 scale), Pigweed” value ([5]; Preemergence, 500 g ai/ha) was 90. The “Plant response rating (0 to 100 scale), Velvetleaf” value ([6]; Postemergence, 125 g ai/ha) was 90, the “Plant response rating (0 to 100 scale), Velvetleaf” value ([6]; Postemergence, 500 g ai/ha) was 90 and the “Velvetleaf plant response rating (0 = no effect, 100 = complete control)” value ([6]; Preemergence, 125 g ai/ha) was 30. The “Plant response rating (0 to 100 scale), Velvetleaf” value ([6]; Preemergence, 500 g ai/ha) was 40, the “Plant response rating (0 to 100 scale), Wheat” value ([7]; Postemergence, 125 g ai/ha) was 0 and the “Plant response rating (0 to 100 scale), Wheat” value ([7]; Postemergence, 500 g ai/ha) was 0. For the same compound, the “Wheat plant response rating (0 = no effect, 100 = complete control)” value ([7]; Preemergence, 125 g ai/ha) was 0, the “Plant response rating (0 to 100), Ryegrass, Italian” value ([8]; 62 g ai/ha) was 0 and the “Plant response rating (0 to 100), Ryegrass, Italian” value ([8]; 125 g ai/ha) was 0. The “Plant response rating, Ryegrass, Italian” value ([8]; 250 g ai/ha) was 0, the “Plant response rating (0 to 100), Foxtail, Giant” value ([9]; 31 g ai/ha) was 0 and the “Plant response rating (0 to 100), Foxtail, Giant” value ([9]; 62 g ai/ha) was 5. For the same compound, the “Plant response rating (0 to 100), Foxtail, Giant” value ([9]; 125 g ai/ha) was 5, the “Plant response rating, Foxtail, Giant” value ([9]; 250 g ai/ha) was 5 and the “Plant response rating (0 to 100), Soybean” value (soybean (Glycine max); 62 g ai/ha) was 5. The “Plant response rating (0 to 100), Soybean” value (soybean (Glycine max); 125 g ai/ha) was 5, the “Plant response rating, Soybean” value (soybean (Glycine max); 250 g ai/ha) was 5 and the “Plant response rating (0 to 100), Chickweed” value ([10]; 31 g ai/ha) was 75. The “Plant response rating (0 to 100), Chickweed” value ([10]; 125 g ai/ha) was 100, the “Plant response rating, Chickweed” value ([10]; 250 g ai/ha) was 100 and the “Plant response rating (0 to 100), Kochia” value (kochia (Kochia scoparia); 62 g ai/ha) was 10. The “Plant response rating (0 to 100), Kochia” value (kochia (Kochia scoparia); 125 g ai/ha) was 20, the “Plant response rating, Kochia” value (kochia (Kochia scoparia); 250 g ai/ha) was 55 and the “Plant response rating (0 to 100), Oat, Wild” value (wild oat (Avena fatua); 62 g ai/ha) was 0. The “Plant response rating (0 to 100), Oat, Wild” value (wild oat (Avena fatua); 125 g ai/ha) was 0 and the “Plant response rating, Oat, Wild” value (wild oat (Avena fatua); 250 g ai/ha) was 0.

From US10167262B2, “Herbicidal substituted 3-arylpyrazoles” (FMC CORPORATION, priority 2014, dated 2019)
